One block for each compound: values may come before it.
Experiments:
METAP2 = system: METAP2; design: method as in PMID 16525646, PMID 9177176, PMID 10574784; conditions: inactivates aminopeptidase activity; cited from earlier work
[1] = Plasma pharmacokinetics by LC/MS-MS after subcutaneous dosing; format: in vivo, human
Procedure: Blood samples were collected to enable PK bioanalyses at the following timepoints: cycles 1, 3, and 6: predose, 3, 6, 24, 48, and 96 hours after dosing, and days 8 (predose on the Q7D schedule), 15 (predose) and 22 (predose on the Q7D schedule); cycles 2, 4, 5, 7, and beyond: days 1 (predose), 8 (predose on the Q7D schedule), 15 (predose), and 22 (predose on the Q7D schedule). PK samples were collected on day 1 (predose, 3, 6, and 24 hours) for cycle 1 and then predose days 1 and 15 for even cycles and predose for odd cycles thereafter. Analysis of exploratory biomarkers was conducted using commercially available ELISA kits.
The levels of the released small-molecule METAP2 inhibitor SDX-7539 in plasma were measured using a validated LC/MS-MS method with a lower limit of quantification (LLOQ) of 10.0 pg/mL. The levels of the polymer–drug conjugate evexomostat in plasma were measured using a fit-for-purpose LC/MS-MS method. Target engagement was assessed at various times postdose in lysed whole blood using a validated ELISA designed to measure uninhibited METAP2 ([25]).
Analyses were conducted using SAS v 9.4 (SAS Institute) unless otherwise noted. AEs were coded in MedDRA v18.1 and analyzed by system organ class/preferred term. Treatment-related AEs (TRAE) were tabulated for all events occurring in two patients or more. Response was assessed using RECIST v1.1. PK analysis utilized WinNonlin v8.1 and a noncompartmental analysis approach.

patients = system: patients; design: method as in PMID 10473076, PMID 12431966; conditions: prior clinical trials; cited from earlier work
VEGF-D = system: VEGF-D; design: method as in PMID 17605814, PMID 24220935; conditions: cited from earlier work
[2] = released active moiety after subcutaneous evexomostat

Compound: CO[C@@H]1[C@H](OC(=O)/C=C/C=C/C=C/C=C/C(=O)O)CC[C@]2(CO2)[C@H]1[C@@]1(C)O[C@@H]1CC=C(C)C [Fumagillin]
binding to METAP2 (METAP2): potently and irreversibly binds to METAP2

relationship of plasma Cmax and AUC in cycle 1 with reductions in platelets ([1]; % change from baseline to C1D8 or C1D15): potential relationship
time with detectable plasma levels ([1]; following a single dose of evexomostat): 7 days
plasma exposure (Cmax, AUC0-t) vs dose ([1]; released SDX-7539 vs administered dose of SDX-7320): variability with increasing dose
Tmax in plasma [1, 2]: 29 h
Tmax in plasma, range [1, 2]: 6 to 96 h
Compound: CO[C@@H]1[C@H](OC(=O)NC2CCC(N)CC2)CC[C@]2(CO2)[C@H]1[C@@]1(C)O[C@@H]1CC=C(C)C (some centres unmarked) [SDX-7539]

Compound: CO[C@@H]1[C@H](OC(=O)NC(=O)CCl)CC[C@]2(CO2)[C@H]1[C@@]1(C)O[C@@H]1CC=C(C)C [TNP-470]
dose-limiting CNS toxicities (patients): dose-limiting CNS toxicities were observed

Compound: CCN(CC)CCNC(=O)c1c(C)[nH]c(/C=C2\C(=O)Nc3ccc(F)cc32)c1C [sunitinib]
change in circulating VEGF-D (VEGF-D): increase circulating VEGF-D
